Our source for the EC50 values is patent US11613525B2 (CTXT PTY LIMITED, priority 2018, dated 2023).

In experiment [1] the target is huSTING (HAQ) (Homo sapiens (Human), UniProt Q86WV6, G230A/H232R/R293Q/R71H). The experiment can be described thus: THP-1 reporter cell line assay, THP-1 STING Lucia ISG cells. The experiment is classed as cell-based. The following applies: THP-1 STING Lucia ISG cells; modified method, top concentration 40 μM, pin tool, EnVision; read-out: Cellular EC50 huSTING (HAQ).

Experiment [2] concerns the target huSTING (WT) (Homo sapiens (Human), UniProt Q86WV6, H232R). In words: THP-1 reporter cell line assay, THP-1-Dual KI-hSTING-R232 cells. The conditions noted are these: read-out: Cellular EC50 huSTING (WT). The experiment is classed as cell-based.

The structures appear in SMILES notation.

In general, EC50 refers to the concentration giving half of the maximal effect.

Chain of huSTING (WT) (Q86WV6 whole entry H232R): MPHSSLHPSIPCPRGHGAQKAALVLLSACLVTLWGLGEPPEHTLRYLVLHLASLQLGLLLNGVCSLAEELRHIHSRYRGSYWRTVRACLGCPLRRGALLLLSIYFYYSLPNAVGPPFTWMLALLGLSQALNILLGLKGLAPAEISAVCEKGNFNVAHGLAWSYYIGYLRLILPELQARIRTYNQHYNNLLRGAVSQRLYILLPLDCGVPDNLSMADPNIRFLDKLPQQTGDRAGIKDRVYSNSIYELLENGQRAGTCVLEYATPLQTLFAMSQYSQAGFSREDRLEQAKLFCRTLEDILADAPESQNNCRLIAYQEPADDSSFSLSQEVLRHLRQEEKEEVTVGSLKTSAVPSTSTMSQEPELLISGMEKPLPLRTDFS
Chain of huSTING (HAQ) (Q86WV6 whole entry R71H/G230A/H232R/R293Q): as the sequence (Q86WV6 whole entry H232R) above, with R71H, G230A, R293Q counted along it

`CCOC(=O)c1sc2ccnc(Cl)c2c1COc1c(F)cc(C(N)=O)cc1F` [Example 91, Ethyl 3-((4-carbamoyl-2,6-difluorophenoxy)methyl)-4-chlorothieno[3,2-c]pyridine-2-carboxylate]: the half-maximal effective concentration (EC50) in experiment [1] was found to be 270 nM; in experiment [2] it was 862 nM.
The corresponding values for `CCOC(=O)c1sc2c(F)ccc(Cl)c2c1COc1c(F)cc(C(N)=O)cc1F` [Example 92, Ethyl 3-((4-carbamoyl-2,6-difluorophenoxy)methyl)-4-chloro-7-fluorobenzo[b]thiophene-2-carboxylate] are 50 nM and 163 nM.
For `CCOC(=O)c1sc2cccc(OCC)c2c1COc1c(F)cc(C(N)=O)cc1F` [Example 94, Ethyl 3-((4-carbamoyl-2,6-difluorophenoxy)methyl)-4-ethoxybenzo[b]thiophene-2-carboxylate] the same measures were 390 nM and 1690 nM.
For `CCOC(=O)c1sc2cccc(Cl)c2c1COc1ccc(C(N)=O)c(OC)c1` [Example 97, Ethyl 3-((4-carbamoyl-3-methoxyphenoxy)methyl)-4-chlorobenzo[b]thiophene-2-carboxylate] the same measures were 1430 nM and 9720 nM.
Take `CCOC(=O)c1sc2c(Br)ccc(Cl)c2c1COc1c(F)cc(C(N)=O)cc1F` [Example 99, Ethyl 7-bromo-3-((4-carbamoyl-2,6-difluorophenoxy)methyl)-4-chlorobenzo[b]thiophene-2-carboxylate]: the EC50 in experiment [1] was found to be 22 nM; in experiment [2], 135 nM.
The corresponding values for `CCOC(=O)c1sc2ccnc(OC)c2c1COc1c(F)cc(C(N)=O)cc1F` [Example 102, Ethyl 3-((4-carbamoyl-2,6-difluorophenoxy)methyl)-4-methoxythieno[3,2-c]pyridine-2-carboxylate] are 53 nM and 377 nM.
As to `CCOC(=O)c1sc2ncnc(OC)c2c1COc1c(F)cc(C(N)=O)cc1F` [Example 108], the concentration giving a half-maximal response (EC50) in experiment [1] is 344 nM; in experiment [2], 341 nM.
For `CCOC(=O)c1sc2cccc(Cl)c2c1COc1c(F)cc(C(N)=O)cc1CO` [Example 110, Ethyl 3-((4-carbamoyl-2-fluoro-6-(hydroxymethyl)phenoxy)methyl)-4-chlorobenzo[b]thiophene-2-carboxylate] the same measures were 13 nM and 52 nM.
For `CCOC(=O)c1sc2cccc(COC)c2c1COc1c(F)cc(C(N)=O)cc1F` [Example 115, Ethyl 3-((4-carbamoyl-2,6-difluorophenoxy)methyl)-4-(methoxymethyl)benzo[b]thiophene-2-carboxylate] the same measures were 635 nM and 1510 nM.
The corresponding values for `CCOC(=O)c1sc2c(F)ccc(Br)c2c1COc1c(F)cc(C(N)=O)cc1F` [Example 116, Ethyl 4-bromo-3-((4-carbamoyl-2,6-difluorophenoxy)methyl)-7-fluorobenzo[b]thiophene-2-carboxylate] are 24 nM and 76 nM.
For the compound `CCOC(=O)c1sc2ccnc(OC)c2c1COc1c(F)cc(C(N)=O)cc1CO` [Example 121, Ethyl 3-((4-carbamoyl-2-fluoro-6-(hydroxymethyl)phenoxy)methyl)-4-methoxythieno[3,2-c]pyridine-2-carboxylate], the EC50 in experiment [1] is 59 nM; in experiment [2], 580 nM.
For `COc1cccc2sc(C(=O)OCOC(=O)C(C)(C)C)c(COc3c(F)cc(C(N)=O)cc3F)c12` [Example 123, (Pivaloyloxy)methyl 3-((4-carbamoyl-2,6-difluorophenoxy)methyl)-4-methoxybenzo[b]thiophene-2-carboxylate] the same measures were 49 nM and 335 nM.
In the case of `CC(C)(C)C(=O)OCOC(=O)c1sc2cccc(C3CC3)c2c1COc1c(F)cc(C(N)=O)cc1F` [Example 124, (Pivaloyloxy)methyl 3-((4-carbamoyl-2,6-difluorophenoxy)methyl)-4-cyclopropylbenzo[b]thiophene-2-carboxylate], the EC50 in experiment [1] was found to be 278 nM; in experiment [2], 1430 nM.
For `CCC(=O)OC(OC(=O)c1sc2cccc(Cl)c2c1COc1c(F)cc(C(N)=O)cc1F)C(C)C` (stereo not drawn) [Example 125, 2-Methyl-1-(propionyloxy)propyl 3-((4-carbamoyl-2,6-difluorophenoxy)methyl)-4-chlorobenzo[b]thiophene-2-carboxylate] the same measures were 86 nM and 529 nM.
As for `Cc1oc(=O)oc1COC(=O)c1sc2cccc(Cl)c2c1COc1c(F)cc(C(N)=O)cc1F` [Example 126, (5-Methyl-2-oxo-1,3-dioxol-4-yl)methyl 3-((4-carbamoyl-2,6-difluorophenoxy)methyl)-4-chlorobenzo[b]thiophene-2-carboxylate], the figures for the EC50 in experiment [1] and in experiment [2] were 39 nM and 187 nM, respectively.
Turning to `CC(C)(C)C(=O)OCOC(=O)c1sc2cccc(Br)c2c1COc1c(F)cc(C(N)=O)cc1F` [Example 128, (Pivaloyloxy)methyl 4-bromo-3-((4-carbamoyl-2,6-difluorophenoxy)methyl)benzo[b]thiophene-2-carboxylate], the values for the EC50 in experiment [1] and in experiment [2] were 68 nM and 210 nM, respectively.
Take `CC(OC(=O)OC(C)(C)C)OC(=O)c1sc2cccc(Cl)c2c1COc1c(F)cc(C(N)=O)cc1F` (stereo not drawn) [Example 129, 1-((tert-Butoxycarbonyl)oxy)ethyl 3-((4-carbamoyl-2,6-difluorophenoxy)methyl)-4-chlorobenzo[b]thiophene-2-carboxylate]: the EC50 in experiment [1] came to 119 nM; in experiment [2], 1580 nM.
As to `CC(C)(C)OC(=O)OCOC(=O)c1sc2cccc(Cl)c2c1COc1c(F)cc(C(N)=O)cc1F` [Example 130, ((tert-Butoxycarbonyl)oxy)methyl 3-((4-carbamoyl-2,6-difluorophenoxy)methyl)-4-chlorobenzo[b]thiophene-2-carboxylate], the figures for the EC50 in experiment [1] and in experiment [2] were 60 nM and 687 nM, respectively.
The corresponding values for `CC(C)(C)C(=O)OCOC(=O)c1sc2c(F)ccc(Br)c2c1COc1c(F)cc(C(N)=O)cc1F` [Example 131] are 44 nM and 57 nM.
For the compound `CC(C)OC(=O)OC(C)OC(=O)c1sc2cccc(Cl)c2c1COc1c(F)cc(C(N)=O)cc1F` (stereo not drawn) [Example 132, 1-((Isopropoxycarbonyl)oxy)ethyl 3-((4-carbamoyl-2,6-difluorophenoxy)methyl)-4-chlorobenzo[b]thiophene-2-carboxylate], the EC50 in experiment [1] stood at 97 nM; in experiment [2], 916 nM.
For `CC(C)[C@H](NC(=O)OC(C)(C)C)C(=O)OCOC(=O)c1sc2cccc(Cl)c2c1COc1c(F)cc(C(N)=O)cc1F` [Example 133, (((tert-Butoxycarbonyl)-L-valyl)oxy)methyl 3-((4-carbamoyl-2,6-difluorophenoxy)methyl)-4-chlorobenzo[b]thiophene-2-carboxylate] the same measures were 120 nM and 806 nM.
On to `CC(=O)OC(C)OC(=O)c1sc2cccc(Cl)c2c1COc1c(F)cc(C(N)=O)cc1F` (stereo not drawn) [Example 134, 1-Acetoxyethyl 3-((4-carbamoyl-2,6-difluorophenoxy)methyl)-4-chlorobenzo[b]thiophene-2-carboxylate], for which the EC50 in experiment [1] is 42 nM; in experiment [2], 217 nM.
Take `CC(OC(=O)c1sc2cccc(Cl)c2c1COc1c(F)cc(C(N)=O)cc1F)OC(=O)C(C)C` (stereo not drawn) [Example 135, 1-(Isobutyryloxy)ethyl 3-((4-carbamoyl-2,6-difluorophenoxy)methyl)-4-chlorobenzo[b]thiophene-2-carboxylate]: the EC50 is 64 nM in experiment [1] and 334 nM in experiment [2].
Consider `NC(=O)c1cc(F)c(OCc2c(C(=O)OCCN3CCOCC3)sc3cccc(Cl)c23)c(F)c1` [Example 137, 2-Morpholinoethyl 3-((4-carbamoyl-2,6-difluorophenoxy)methyl)-4-chlorobenzo[b]thiophene-2-carboxylate], for which the EC50 worked out at 21 nM in experiment [1] and 226 nM in experiment [2].
As to `CN(C)C(=O)OCOC(=O)c1sc2cccc(Cl)c2c1COc1c(F)cc(C(N)=O)cc1F` [Example 138, ((Dimethylcarbamoyl)oxy)methyl 3-((4-carbamoyl-2,6-difluorophenoxy)methyl)-4-chlorobenzo[b]thiophene-2-carboxylate], the results for the EC50 in experiment [1] and in experiment [2] were 14 nM and 242 nM, respectively.
For `CC(=O)N[C@H](C(=O)OCOC(=O)c1sc2cccc(Cl)c2c1COc1c(F)cc(C(N)=O)cc1F)C(C)C` [Example 139, ((Acetyl-L-valyl)oxy)methyl 3-((4-carbamoyl-2,6-difluorophenoxy)methyl)-4-chlorobenzo[b]thiophene-2-carboxylate] the same measures were 36 nM and 291 nM.
For `CCC(=O)OC(OC(=O)c1sc2c(F)ccc(Br)c2c1COc1c(F)cc(C(N)=O)cc1F)C(C)C` (stereo not drawn) [Example 140, 2-Methyl-1-(propionyloxy)propyl 4-bromo-3-((4-carbamoyl-2,6-difluorophenoxy)methyl)-7-fluorobenzo[b]thiophene-2-carboxylate] the same measures were 46 nM and 160 nM.
The corresponding values for `COC(=O)c1sc2cccc(F)c2c1COc1ccc(C(N)=O)cc1` [Example 141, Methyl 3-((4-carbamoylphenoxy)methyl)-4-fluorobenzo[b]thiophene-2-carboxylate] are 1770 nM and 3340 nM.
As for `CCOC(=O)c1sc2cccc(C3CC3)c2c1COc1c(F)cc(C(N)=O)cc1F` [Example 142, Ethyl 3-((4-carbamoyl-2,6-difluorophenoxy)methyl)-4-cyclopropylbenzo[b]thiophene-2-carboxylate], the figures for the concentration for a half-maximal effect (EC50) in experiment [1] and in experiment [2] were 181 nM and 3120 nM, respectively.
As to `CCOC(=O)c1sc2c(C)ccc(Cl)c2c1COc1c(F)cc(C(N)=O)cc1F` [Example 144, Ethyl 3-((4-carbamoyl-2,6-difluorophenoxy)methyl)-4-chloro-7-methylbenzo[b]thiophene-2-carboxylate], the EC50 was 23 nM in experiment [1] and 925 nM in experiment [2].
